Assay results reported in US4138491A, “Method for treating diabetes” (Daiichi Seiyaku Co., Ltd., priority 1976, dated 1979).

Assays:
blood insulin [1] = assay: Insulin releasing action, fed mice; format: in vivo, mouse; details: fed mice, 25 mg/kg po
Protocol: (§1) Among the test animals fed rats were anesthetized by administration of pentobarbital (40 mg/kg, ip), and administered, intravenously with an isotonic sodium chloride solution of Compound A. An aqueous solution of the sample was orally administered to fed mice. In both cases blood was sampled from the tail vein with the passage of time, and the blood insulin was determined by the radioimmunoassay method of Morgen et al [Diabetes, Vol. 12, pp 115 (1963)]. At the same time blood sugar was also determined. […] The amount of insulin released in Table 4 was obtained by determining the difference between the blood insulin level at 5 points (5, 10, 20, 30, 40 minutes) during a 40 minute period after administration of the sample in the case of rats or 3 points (0.5, 1.0, 2.0 hours) during a 2 hour period after administration of the sample in the case of mice and the blood insulin level at 0 minute just before administration of the sample and then by summing up these differences.

blood sugar level [2] = assay: Glucose tolerance test in AYKK mice; format: in vivo, AYKK mouse; details: 25 mg/kg PO; glucose 1 g/kg; sum of increments at 15, 30, 60, 90 min vs control; 100 = no improvement
Protocol: (§2) One index for the treatment of diabetes is to improve this glucose tolerance. The compound of the present invention was orally administered to normal rats, Streptozotocin-induced mildly diabetic rats and AYKK-mice, and thereafter glucose was administered intraperitoneally 1 hour later, and the glucose tolerance was examined. […] Further, a lowering of blood sugar in the glucose tolerance test using normal rats was examined with the passage of time, and the results obtained are given in Table 1 below.
(§3) A sample aqueous solution or suspension was orally administered to the test animals which had been fasted for 24 hours and one hour later glucose was intraperitoneally or subcutaneously administered to the test animals. Thereafter, blood was sampled from the tail vein with the passage of time in order to determine the blood sugar level by the glucose-oxidase method.
*5AYKK-mouse was obtained by mating a yellow mouse having symptoms of […]

serum lactate level = assay: Influence on serum lactate level, repeated administration for 4 days; format: in vivo, normal rat; details: Compound A 200 mg/kg/day (phenformin dose not given)
Protocol: The biguanide drugs heretofore used as a treatment for diabetes are said undesirably to cause acidosis due to an increase of serum lactate level when such drugs are repeatedly administered. The compounds of the present invention were repeatedly administered for 4 days to normal rats and the serum lactate level was determined every day to compare such with the administration of phenformine which is one example of a biguanide drug.
Compound A was repeatedly administered for 4 days to normal rats in a dosage of 200 mg/kg/day, and blood was sampled with the passage of time in order to determine the serum lactate level.

blood sugar level [3] = assay: Blood sugar lowering activity, fasted beagle; format: in vivo, beagle dog; details: 25 mg/kg PO
Protocol: (§4) The compounds of the present invention were orally administered to normal rats, mice, dogs and hereditary diabetic mice(AYKK-mice), and the blood sugar lowering activity was examined.
(§5) Test animals which were used included animals which had been fasted for 24 hours to achieve an empty stomach, and animals which had been fed to achieve a full stomach without any restriction of diet. A sample aqueous solution or suspension was orally administered, and blood was sampled with the passage of time from the tail vein or the cephalic vein in order to determine the level of blood sugar by the glucose-oxidase method.

blood sugar level [4] = assay: Blood sugar lowering activity, fed AγKK (AYKK) mouse, hereditary diabetic; format: in vivo; details: fed AγKK mouse
Protocol: as §4, §5

Acute toxicity (rat) = details: in vivo, read-out: Acute Toxicity (rat) ID50
blood sugar level [5] = assay: Blood sugar lowering activity, fed mouse; format: in vivo; details: 25 mg/kg PO
Protocol: as §4, §5

blood sugar level [6] = assay: Blood sugar lowering activity, fasted rat; format: in vivo
Protocol: as §4, §5

[7] = tested on: blood platelet aggregation induced by collagen in rat platelet rich plasma; assay: Blood platelet aggregation inhibiting activity (collagen induced, in vitro); format: cell-based; details: read-out: Platelet Aggregation Inhibition Activity, ID50
Protocol: It is generally said that blood platelet aggregability is accelerated in a diabetes patient and that this secondarily causes blood vessel disorders. […] Thus, based on this the compounds of the present invention are expected to be useful in preventing and improving the secondary vasular lesions of diabetes mellitus.
Citrated rat blood was centrifuged in order to obtain platelet rich plasma, and to 0.4 ml of this plasma was added 50 μl of sample solution. To the resulting solution was added 50 μl of collagen suspension under stirring, and platelet aggregation reaction was determined according to the method of Born [Nature, Vol. 194, pp. 927 (1962)]. The concentration of the sample (ID50) which inhibits 50% of the aggregation reaction of the control without the test sample added is shown in Table 6 below.

blood sugar level [8] = assay: Glucose tolerance test in normal rats (oral compound, glucose load 1 hour later); format: in vivo, normal rat
Protocol: as §2, §3

blood sugar level [9] = assay: Glucose tolerance test in streptozotocin-induced mildly diabetic rats; format: in vivo, rat (Wistar strain); details: 10 mg/kg PO; glucose 1 g/kg; sum of increments at 15, 30, 60, 90 min vs control; 100 = no improvement
Protocol: as §2, §3
*4The streptozotocin-induced mildly diabetic rats were produced by […]

blood insulin [10] = assay: Insulin releasing action, fed rats; format: in vivo, rat; details: 25 mg/kg iv
Protocol: as §1

For `c1ccc(C(CC2=NCCN2)c2ccccc2)cc1` [Compound A, 2-(2,2-diphenyl)ethylimidazoline], the “Blood Sugar Level” value (blood insulin [1]; after 2 hours, control = 100) was 69.8%, the “Amount of Insulin Released” value (blood insulin [1]; sum of differences at 0.5, 1.0, 2.0 hours) was 57±14.2 μunit/ml and the “Glucose Tolerance Improving Activity” value (blood sugar level [2]) was 52.5%. For the same compound, the “Serum Lactate Level, 0 Day” value (serum lactate level; 0 Day) was 0.993±0.051 μ mol/ml, the “Serum Lactate Level, After 1 Day” value (serum lactate level; After 1 Day) was 1.386±0.073 μ mol/ml and the “Serum Lactate Level, After 4 Days” value (serum lactate level; After 4 Days) was 1.125±0.113 μ mol/ml. For the same compound, the “Blood Sugar Level (control = 100), 1 Hr” value (blood sugar level [3]; 1 h) was 70%, the “Blood Sugar Level (control = 100), 2 Hrs” value (blood sugar level [3]; 2 h) was 66% and the “Blood Sugar Level (control = 100), 3 Hrs” value (blood sugar level [3]; 3 h) was 64%. For the same compound, the “Blood Sugar Level (control = 100), 1 Hr” value (blood sugar level [4]; 10 mg/kg PO) was 72%, the “Blood Sugar Level (control = 100), 2 Hrs” value (blood sugar level [4]; 10 mg/kg PO) was 71% and the “Blood Sugar Level (control = 100), 3 Hrs” value (blood sugar level [4]; 10 mg/kg PO) was 62%. For the same compound, the “Blood Sugar Level (control = 100), 5 Hrs” value (blood sugar level [4]; 10 mg/kg PO) was 63%, the “Blood Sugar Level (control = 100), 1 Hr” value (blood sugar level [4]; 25 mg/kg PO) was 44% and the “Blood Sugar Level (control = 100), 2 Hrs” value (blood sugar level [4]; 25 mg/kg PO) was 46%. The “Blood Sugar Level (control = 100), 3 Hrs” value (blood sugar level [4]; 25 mg/kg PO) was 41%, the “Blood Sugar Level (control = 100), 5 Hrs” value (blood sugar level [4]; 25 mg/kg PO) was 49% and the LD50 (Acute toxicity (rat)) was 562 mg/kg. The “Blood Sugar Level (control = 100), 1 Hr” value (blood sugar level [5]; 1 h) was 54%, the “Blood Sugar Level (control = 100), 2 Hrs” value (blood sugar level [5]; 2 h) was 67% and the “Blood Sugar Level (control = 100), 3 Hrs” value (blood sugar level [5]; 3 h) was 65%. For the same compound, the “Blood Sugar Level (control = 100), 5 Hrs” value (blood sugar level [5]; 5 h) was 76%, the “Blood Sugar Level (control = 100), 1 Hr” value (blood sugar level [6]; 10 mg/kg PO) was 76% and the “Blood Sugar Level (control = 100), 2 Hrs” value (blood sugar level [6]; 10 mg/kg PO) was 71%. For the same compound, the “Blood Sugar Level (control = 100), 3 Hrs” value (blood sugar level [6]; 10 mg/kg PO) was 71%, the “Blood Sugar Level (control = 100), 5 Hrs” value (blood sugar level [6]; 10 mg/kg PO) was 65% and the “Blood Sugar Level (control = 100), 1 Hr” value (blood sugar level [6]; 25 mg/kg PO) was 72%. For the same compound, the “Blood Sugar Level (control = 100), 2 Hrs” value (blood sugar level [6]; 25 mg/kg PO) was 67%, the “Blood Sugar Level (control = 100), 3 Hrs” value (blood sugar level [6]; 25 mg/kg PO) was 57% and the “Blood Sugar Level (control = 100), 5 Hrs” value (blood sugar level [6]; 25 mg/kg PO) was 67%. For the same compound, the IC50 [7] was 70 µM, the “Glucose Tolerance Improving Activity” value (blood sugar level [8]; 10 mg/kg PO, glucose 2 g/kg, sum of increments at 15, 30, 60, 90 min vs control, 100 = no improvement) was 15.7% and the “Blood Glucose Level, 0 min” value (blood sugar level [8]; 10 mg/kg, glucose 2 g/kg, 0 min) was 72 ± 3 mg/dL. For the same compound, the “Blood Glucose Level, 15 min” value (blood sugar level [8]; 10 mg/kg, glucose 2 g/kg, 15 min) was 83 ± 6 mg/dL, the “Blood Glucose Level, 30 min” value (blood sugar level [8]; 10 mg/kg, glucose 2 g/kg, 30 min) was 87 ± 4 mg/dL and the “Blood Glucose Level, 60 min” value (blood sugar level [8]; 10 mg/kg, glucose 2 g/kg, 60 min) was 76 ± 3 mg/dL. For the same compound, the “Blood Glucose Level, 90 min” value (blood sugar level [8]; 10 mg/kg, glucose 2 g/kg, 90 min) was 68 ± 4 mg/dL, the “Blood Glucose Level, before glucose load (-60 min.)” value (blood sugar level [8]; 10 mg/kg, glucose 2 g/kg, -60 min) was 84 ± 1 mg/dL and the “blood sugar level maintained after glucose load” value (blood sugar level [8]; normal rats, Table 1, in words) was “maintains the blood sugar level in the range of the fasting blood sugar level”. For the same compound, the “rise in blood sugar level due to the glucose load” value (blood sugar level [8]; normal rats, Table 1, in words) was “scarcely any rise in blood sugar level”, the “Glucose Tolerance Improving Activity” value (blood sugar level [9]) was 25.2% and the “Blood Sugar Level” value (blood insulin [10]; after 90 minutes, control = 100) was 62%. The “Amount of Insulin Released” value (blood insulin [10]; sum of differences at 5, 10, 20, 30, 40 min) was 250±15 μunit/ml.
